Laboratory results from EPA's aquatic toxicity sets.

What was measured:
Pimephales promelas = assay: 96 h LC50 (-log10 mol/L); higher = more toxic
Daphnia magna = assay: 48 h LC50 (-log10 mol/L); higher = more toxic
Tetrahymena pyriformis = assay: 48 h IGC50 (-log10 mol/L); higher = more toxic

| SMILES | 96 h LC50 (-log10 mol/L) (Pimephales promelas) | 48 h LC50 (-log10 mol/L) (Daphnia magna) | 48 h IGC50 (-log10 mol/L) (Tetrahymena pyriformis) |
| --- | --- | --- | --- |
| O=[N+]([O-])c1ccc(O)c([N+](=O)[O-])c1 | 4.22 | 4.61 | 4.06 |
| C=Cc1ccccc1 | 3.79 | 3.53 | 2.98 |
| Oc1ccccc1 | 3.5 | 3.85 | 2.65 |
| c1ccc(-c2ccccc2)cc1 | 4.72 | 4.91 | 4.05 |
| Clc1cccc(-c2ccccc2)c1 | 4.38 | 5.64 | – |
| CCNCC | 1.93 | 3.12 | – |
| CCc1ccc(C)nc1 | 3.17 | 3.48 | 2.82 |
| O=P(O)(O)CCCl | 3.05 | 3.04 | – |
| CC1(C)[C@H](C=C2CCCC2)[C@H]1C(=O)OCc1coc(Cc2ccccc2)c1 | 8.57 | 8.16 | – |
| CCCN(CCC)c1c([N+](=O)[O-])cc(C(C)C)cc1[N+](=O)[O-] | 5.85 | 7.01 | – |
| Nc1ccc(Cl)c(Cl)c1Cl | 4.74 | 5.43 | 4.35 |
| C1CO1 | 2.72 | 2.33 | – |
| CCCCOC(=O)c1ccccc1C(=O)OCCCC | 5.37 | 4.88 | – |
| CC(O)CC(C)(C)O (configuration not stated) | 1.04 | 1.22 | 1.05 |
| CCCO | 1.12 | 0.935 | 1.25 |
| CNC(=O)O/N=C/C(C)(C)SC | 5.17 | 5.55 | – |
| c1ccc2c(c1)-c1cccc3cccc-2c13 | 6.77 | 6.28 | – |
| OCCO | 0.037 | 0.122 | – |
| Cc1cc(O)ccc1Cl | 4.42 | 4.85 | 3.8 |
| Cc1cccc(C)c1 | 3.82 | 3.65 | – |
| ClCC(Cl)CCl | 3.41 | 3.65 | – |
| COP(=S)(OC)Oc1ccc(SC)c(C)c1 | 4.94 | 6.79 | – |
| CNC(=O)ON=C(C)SC | 4.89 | 6.96 | – |
| CC(Cl)CCl (configuration not stated) | 2.93 | 3.34 | – |
| CC=O | 3.08 | 0.55 | – |

| SMILES | 96 h LC50 (-log10 mol/L) (Pimephales promelas) | 48 h LC50 (-log10 mol/L) (Daphnia magna) | 48 h IGC50 (-log10 mol/L) (Tetrahymena pyriformis) |
| --- | --- | --- | --- |
| CCc1ccccc1 | 3.95 | 4.5 | – |
| ClCCl | 2.42 | 2.66 | – |
| O=C(Nc1ccc(Cl)cc1)Nc1ccc(Cl)c(Cl)c1 | 6.54 | 7.48 | – |
| c1ccc(Oc2ccccc2)cc1 | 4.63 | 5.43 | – |
| Clc1ccccc1-c1ccccc1 | 4.67 | 5.42 | – |
| CCCCCCCCn1sccc1=O | 6.18 | 6.07 | – |
| Oc1ccc2ccccc2c1 | 4.62 | 4.61 | – |
| ClC(Cl)(Cl)C(Cl)(Cl)Cl | 5.24 | 4.93 | – |
| CCOP(=O)(OCC)Oc1ccc([N+](=O)[O-])cc1 | 5.98 | 9.14 | – |
| CC(C)c1ccc2c(c1)CC[C@H]1[C@](C)(C(=O)O)CCC[C@]21C | 4.97 | 4.56 | – |
| c1cc2c3c(cccc3c1)CC2 | 4.98 | 3.58 | – |
| O=C(O)CNCP(=O)(O)O | 4.57 | 3.91 | – |
| NC(=O)c1c(Cl)cccc1Cl | 2.61 | 2.35 | – |
| CCCCOC(=O)c1ccccc1C(=O)OCc1ccccc1 | 5.22 | 5.19 | – |
| CC(=O)CC(C)=O | 2.85 | 3.32 | – |
| CC(Cl)(Cl)Cl | 3.4 | 3.72 | – |
| CC1(C)C(C=C(Cl)Cl)C1C(=O)OC(C#N)c1ccc(F)c(Oc2ccccc2)c1 (configuration not stated) | 8.6 | 9.13 | – |
| C1CCCCC1 | 3.3 | 4.34 | – |
| Cc1ccc([N+](=O)[O-])cc1 | 3.44 | 4.01 | – |
| ClCC(Cl)Cl | 3.21 | 3.49 | – |
| C=CC#N | 3.57 | 3.78 | – |
| CCN(CC)c1nc(C)cc(OP(=S)(OC)OC)n1 | 5.09 | 9.14 | – |
| C=C(C)[C@H]1Cc2c(ccc3c2O[C@@H]2COc4cc(OC)c(OC)cc4[C@@H]2C3=O)O1 | 7.82 | 8.03 | – |
| CCC1(c2ccccc2)C(=O)NC(=O)NC1=O | 2.68 | 2.2 | – |
| CCCCC(CC)COC(=O)c1ccccc1C(=O)OCC(CC)CCCC (configuration not stated) | 2.55 | 4.55 | – |

| SMILES | 96 h LC50 (-log10 mol/L) (Pimephales promelas) | 48 h LC50 (-log10 mol/L) (Daphnia magna) | 48 h IGC50 (-log10 mol/L) (Tetrahymena pyriformis) |
| --- | --- | --- | --- |
| CC(C)(c1ccc(O)cc1)c1ccc(O)cc1 | 4.69 | 4.3 | – |
| O=C(O)COc1ccc(Cl)cc1Cl | 2.92 | 3.78 | – |
| CC(C)CO | 1.7 | 1.82 | – |
| ClC(Cl)=C(Cl)Cl | 3.96 | 4 | – |
| ClC1=C(Cl)[C@]2(Cl)[C@H]3[C@H]([C@H](Cl)[C@]4(Cl)O[C@H]34)[C@@]1(Cl)C2(Cl)Cl | 8.1 | 5.51 | – |
| CCOCC | 1.46 | 1.73 | – |
| Clc1ccc(Cl)c(-c2ccccc2Cl)c1 | 6.88 | 6.67 | – |
| Cc1ccccc1C | 3.81 | 3.79 | – |
| CC(C)[C@H](C(=O)O[C@H](C#N)c1cccc(Oc2ccccc2)c1)c1ccc(Cl)cc1 | 9.26 | 8.58 | – |
| CC1=CC(=O)CC(C)(C)C1 | 2.74 | 3.06 | – |
| OCCOCCOCCO | 0.309 | 0.46 | – |
| COP(=O)(OC)C(O)C(Cl)(Cl)Cl (configuration not stated) | 3.37 | 7.7 | – |
| Oc1c(Cl)cc(Cl)c(Cl)c1Cl | 5.35 | 6.11 | – |
| O=C1C2(Cl)C3(Cl)C4(Cl)C(Cl)(Cl)C5(Cl)C3(Cl)C1(Cl)C5(Cl)C24Cl (configuration not stated) | 6.11 | 6.39 | – |
| ClC=C(Cl)Cl | 3.47 | 3.48 | – |
| CCC(O)C(C)CO (configuration not stated) | 1.13 | 1.22 | – |
| c1ccc(C2CO2)cc1 (configuration not stated) | 4 | 4.02 | – |
| CC(N)=S | 2.44 | 3.64 | – |
| CCOP(=S)(OCC)SCSC(C)(C)C | 6.81 | 8.21 | – |
| CCOC(=O)CC(SP(=S)(OC)OC)C(=O)OCC (configuration not stated) | 4.42 | 8.35 | – |
| CCOP(=S)(OCC)Oc1ccc([N+](=O)[O-])cc1 | 5.32 | 8.15 | – |
| CCOP(=S)(OCC)SCSCC | 6.02 | 7.13 | – |
| C1=CC2C3C=CC(C3)C2C1 (configuration not stated) | 3.41 | 4.1 | – |
| COP(=S)(OC)SCN1C(=O)c2ccccc2C1=O | 4.59 | 5.6 | – |
